Data reported in publication PMC9187652, “Investigating the ligand agonism and antagonism at the D2long receptor by dynamic mass redistribution” (Scientific Reports, 2022).
Where two headings read alike, the source gives them in different places. Marks after values point to notes of the source that are not given here. *1 amine or outer side, *2 acyl side, *3 side chain or, on linkers, in order; H or OH if unused. Where a SMILES comes first, the peptide text is derived from it. Bridges are numbered along the chain shown (N, C = ends). [ ]: non-standard residue; d: D form. The star is where a group is joined. Leu(3R-OH,Nα-propionyl) = CCC(=O)N[C@H](C(=O)*)[C@H](O)C(C)C; X1 = CC(C)[C@@H](O[*:3])[C@H](N[*:1])C(=O)[*:2]; NMeT = CN[C@H](C(=O)O)[C@@H](C)O; dPhLac = O=C(O)[C@H](O)Cc1ccccc1; NMeA = CN[C@@H](C)C(=O)O; NMeDha = C=C(NC)C(=O)O

What was measured:
CHO-K1 hD2longR cells = assay type: cell-based, human
hD2longR [1] = molecular target: T1, hD2longR (Homo sapiens, UniProt P14416); assay type: cell-based
[2] = molecular target: T2, human dopamine D2long receptor (Homo sapiens, UniProt P14416)
hD2longR [3] = molecular target: T1, hD2longR; settings: cited from earlier work
D2R = settings: cited from earlier work; for Emax, [35S]GTPγS binding: relative to dopamine
[4] = test system: untransfected CHO-K1 cells; test: DMR off-target test in untransfected CHO-K1 cells
[5] = molecular target: T2, human dopamine D2long receptor; remark: listed apart in the source
[6] = molecular target: T2, human dopamine D2long receptor; test: cell-based; settings: CHO-K1, read-out: DMR Emax (%)
D2long receptors = settings: read-out: EC50 (DMR); cited from earlier work
[7] = CHO-K1 hD2longR cells pretreated with the agent (PTX, CTX about 20 h; FR900359 2 h; forskolin 1 μM 40 min; EGTA 2 mM in assay buffer)

T1 sequence (P14416 whole entry): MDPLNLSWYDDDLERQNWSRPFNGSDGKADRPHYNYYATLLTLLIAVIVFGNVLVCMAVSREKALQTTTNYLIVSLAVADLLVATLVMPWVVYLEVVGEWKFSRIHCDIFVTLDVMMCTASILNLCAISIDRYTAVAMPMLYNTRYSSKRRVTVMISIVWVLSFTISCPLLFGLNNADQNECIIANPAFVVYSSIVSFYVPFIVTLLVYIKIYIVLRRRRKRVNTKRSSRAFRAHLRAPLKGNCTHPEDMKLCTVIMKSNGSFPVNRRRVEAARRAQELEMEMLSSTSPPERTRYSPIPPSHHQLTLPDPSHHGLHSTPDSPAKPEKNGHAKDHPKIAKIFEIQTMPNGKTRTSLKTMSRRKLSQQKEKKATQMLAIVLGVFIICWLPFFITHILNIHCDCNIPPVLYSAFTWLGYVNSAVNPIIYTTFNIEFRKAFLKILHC
T2 sequence (P14416 whole entry): as above

For cholera toxin [CTX], the “DMR response induced by the agent alone in CHO-K1 hD2longR cells” value (from here on “DMR response induced by the agent alone”) (CHO-K1 hD2longR cells) was “did not induce a DMR response”, the “effect on the quinpirole induced DMR response” value (CHO-K1 hD2longR cells) was “apparent increase in quinpirole efficacy” and the “effect on receptor expression ([3H]N-methylspiperone binding)” value (from here on “effect on receptor expression”) (hD2longR [1]) was “slight up-regulation”.

For R-(−)-apomorphine, the “DMR Emax (%)” value [2] is listed as 102 ± 5%, the “quality of action in the DMR assay (full / partial agonist)” value [2] is listed as “full agonist” and the “β-arrestin2 recruitment Emax (%)” value (hD2longR [3]) is listed as 87 ± 3^a %. The “pEC50, [35S]GTPγS binding” value (D2R; ref 42) was 7.66, the “pEC50, [35S]GTPγS binding” value (D2R; ref 49) was 6.76 and the “Emax, [35S]GTPγS binding” value (D2R; ref 42) was 53%. The “Emax, [35S]GTPγS binding” value (D2R; ref 49) was 90% and the “DMR response in untransfected CHO-K1 cells (off-target activity)” value (from here on “DMR response … (off-target activity)”) [4] was “did not elicit a DMR signal”.

For `C=C[C@@]1(C)CC(=O)[C@]2(O)[C@@]3(C)[C@@H](O)CCC(C)(C)[C@@H]3[C@H](O)[C@H](OC(C)=O)[C@@]2(C)O1` [forskolin], the “effect on the quinpirole induced DMR response” value (CHO-K1 hD2longR cells; [7]) was “increase in quinpirole efficacy”, the “time of minimum of the forskolin DMR signal” value (CHO-K1 hD2longR cells; forskolin alone) was “about 5 min” and the “DMR response induced by the agent alone” value (CHO-K1 hD2longR cells; without quinpirole, thapsigargin in EGTA (2 mM) containing buffer, forskolin 1 μM) was “negative DMR signal”. For the same compound, the “effect on receptor expression” value (hD2longR [1]; forskolin 1 μM for 40 min) was “did not exhibit a marked effect on the receptor expression” and the “effect on receptor expression” value (hD2longR [1]; forskolin 1 μM for 20 h) was “strong increase in specific radioligand binding”.

In the case of `O=C(CCCN1CCC(O)(c2ccc(Cl)cc2)CC1)c1ccc(F)cc1` [Haloperidol, haloperidol], the “DMR response … (off-target activity)” value [4] is reported as “slight negative DMR response”.

For `CCN1CCC[C@H]1CNC(=O)c1cc(S(N)(=O)=O)ccc1OC` [S-(−)-sulpiride], the “Hill Slope of inhibition curve” value ([5]; antagonist mode, versus 30 nM quinpirole) was −1.18.

With `C=C1C(=O)N[C@@H](C)C(=O)N(C)[C@@H](C)C(=O)N[C@@H]([C@H](OC(=O)[C@@H](NC(=O)CC)[C@H](O)C(C)C)C(C)C)C(=O)N(C)[C@@H]([C@@H](C)OC)C(=O)O[C@H](C(C)C)[C@H](NC(C)=O)C(=O)O[C@H](Cc2ccccc2)C(=O)N1C` [FR900359] (Ac-[X1][dPhLac][NMeDha]A[NMeA][X1](Leu(3R-OH,Nα-propionyl))[NMeT](Me); ester 1-C) the “DMR response induced by the agent alone” value (CHO-K1 hD2longR cells) was “did not induce a DMR response” and the “effect on the quinpirole induced DMR response” value (CHO-K1 hD2longR cells; [7]) was “did not show a pronounced effect”.

In the case of `C/C=C(/C)C(=O)O[C@H]1C(C)=C2[C@H]([C@@H]1OC(=O)CCCCCCC)[C@@](C)(OC(C)=O)C[C@H](OC(=O)CCC)[C@@]1(O)[C@H]2OC(=O)[C@@]1(C)O` [thapsigargin], the “DMR response induced by the agent alone” value (CHO-K1 hD2longR cells) is reported as “rapidly decreasing negative DMR signal”, the “time to plateau of the thapsigargin-induced negative DMR signal” value (CHO-K1 hD2longR cells; EGTA containing assay buffer) is reported as “approximately 15 min” and the “effect on the quinpirole induced DMR response” value (CHO-K1 hD2longR cells; thapsigargin (1 μM or 2 μM, 20 min) in combination with EGTA (2 mM)) is reported as “completely abrogated the quinpirole-induced response”.

For `CCCN[C@H]1CCc2nc(N)sc2C1` [Pramipexole, pramipexole], the “quality of action in the DMR assay (full / partial agonist)” value [2] is given as “full agonists”, the Emax [6] is given as 97 ± 0.1% and the EC50 (D2long receptors) is given as 8.7 nM.

With `O=C(O)CN(CCOCCOCCN(CC(=O)O)CC(=O)O)CC(=O)O` [EGTA] the “effect on the quinpirole induced DMR response” value (CHO-K1 hD2longR cells; [7]) was “completely abrogated the quinpirole-induced response”.

With pertussis toxin [PTX] the “DMR response induced by the agent alone” value (CHO-K1 hD2longR cells) was “did not induce a DMR response” and the “effect on the quinpirole induced DMR response” value (CHO-K1 hD2longR cells; [7]) was “concentration-dependent decrease in the DMR response”.

For `NCCc1ccc(O)c(O)c1` [Dopamine, dopamine], the EC50 (D2long receptors) is listed as 11 nM.

With `CNc1cc(OC)c(C(=O)NC2CCN(Cc3ccccc3)C2C)cc1Cl` (centres unmarked) [Nemonapride, nemonapride] the “Hill Slope of inhibition curve” value [5] was −1.95 and the “DMR response … (off-target activity)” value [4] was “slight negative DMR response”.
